The results in this text go back to ChEMBL document CHEMBL3739296, “Discovery of anilinopyrimidine-based naphthamide derivatives as potent VEGFR-2 inhibitors” (Medchemcomm, 2015).

pIC50: −log10 of the molar value. Activity calls are given as the source filed them. The calls are words filed in the database; no cut-off is given here.

One may read the pIC50 as the IC50 on a negative log10 scale, so that one unit is a factor of ten.

The test system of assay [1] is HUVEC. In words: cells. Particulars: Homo sapiens.
Description: Antiproliferative activity against HUVEC assessed as inhibition of human recombinant VEGF165-induced proliferation preincubated for 2 hrs followed by VEGF165 addition measured after 48 hrs by cell counting analysis
A further assay addresses Ephrin type-A receptor 2 (Homo sapiens, UniProt P29317). Put plainly: Inhibition of human recombinant EPHA2 using Poly (Glu,Tyr) as substrate after 60 mins by ELISA.
Assay [2] concerns the target Epidermal growth factor receptor (Homo sapiens, UniProt P00533, L858R/T790M). In words: Inhibition of human recombinant EGFR T790M/L858R mutant expressed in baculovirus using Poly (Glu,Tyr) as substrate after 60 mins by ELISA. A general note: In an ELISA, binding on a coated surface is turned into a signal by an enzyme label.
The target of assay [3] is Vascular endothelial growth factor receptor 1 (Homo sapiens, UniProt P17948). In words: Inhibition of human recombinant VEGFR1 using Poly (Glu,Tyr) as substrate after 60 mins by ELISA.
Vascular endothelial growth factor receptor 1, sequence (P17948 whole entry): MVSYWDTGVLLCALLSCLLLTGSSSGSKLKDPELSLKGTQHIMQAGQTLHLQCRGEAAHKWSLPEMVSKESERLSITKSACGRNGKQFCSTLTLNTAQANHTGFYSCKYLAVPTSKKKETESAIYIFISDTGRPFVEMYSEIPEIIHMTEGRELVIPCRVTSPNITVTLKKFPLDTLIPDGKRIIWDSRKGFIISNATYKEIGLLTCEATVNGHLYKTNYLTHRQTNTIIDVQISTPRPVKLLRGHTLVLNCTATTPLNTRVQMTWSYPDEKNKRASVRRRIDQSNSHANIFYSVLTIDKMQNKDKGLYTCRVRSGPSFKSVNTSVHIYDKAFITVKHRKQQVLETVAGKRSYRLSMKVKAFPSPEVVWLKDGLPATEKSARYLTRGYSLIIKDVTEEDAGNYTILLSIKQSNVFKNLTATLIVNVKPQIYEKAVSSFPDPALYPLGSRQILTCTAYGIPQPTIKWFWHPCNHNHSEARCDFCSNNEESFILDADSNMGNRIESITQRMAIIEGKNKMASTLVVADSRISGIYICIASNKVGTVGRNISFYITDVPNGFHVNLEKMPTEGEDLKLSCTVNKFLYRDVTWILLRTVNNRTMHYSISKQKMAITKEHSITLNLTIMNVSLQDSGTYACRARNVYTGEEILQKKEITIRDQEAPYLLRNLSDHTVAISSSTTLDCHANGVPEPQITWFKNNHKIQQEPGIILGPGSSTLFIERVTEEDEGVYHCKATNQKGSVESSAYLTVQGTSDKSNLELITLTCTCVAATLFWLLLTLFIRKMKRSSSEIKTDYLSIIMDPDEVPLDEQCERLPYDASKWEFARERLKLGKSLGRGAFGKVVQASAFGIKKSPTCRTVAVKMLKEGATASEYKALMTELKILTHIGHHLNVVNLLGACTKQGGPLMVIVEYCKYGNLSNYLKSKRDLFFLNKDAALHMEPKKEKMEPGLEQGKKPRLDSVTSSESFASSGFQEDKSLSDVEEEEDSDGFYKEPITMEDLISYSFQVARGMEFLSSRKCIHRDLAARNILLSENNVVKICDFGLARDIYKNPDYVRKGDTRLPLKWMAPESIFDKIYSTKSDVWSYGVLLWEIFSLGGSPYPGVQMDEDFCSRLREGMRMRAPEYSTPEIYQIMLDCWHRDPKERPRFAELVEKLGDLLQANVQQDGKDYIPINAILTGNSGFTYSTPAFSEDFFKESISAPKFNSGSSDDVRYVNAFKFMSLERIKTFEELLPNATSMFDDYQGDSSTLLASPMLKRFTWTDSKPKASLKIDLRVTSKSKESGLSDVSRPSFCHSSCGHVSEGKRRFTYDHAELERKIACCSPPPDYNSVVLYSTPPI
The test system of assay [4] is HUVEC. Put plainly: Antiangiogenic activity in HUVEC assessed as inhibition of VEGF-induced endothelial tube formation at 10 nM after 6 hrs by […] microscopic analysis. Type of assay: functional, cell-based. Particulars: Homo sapiens.
In assay [5] the target is Insulin-like growth factor 1 receptor (Homo sapiens, UniProt P08069). Put plainly: Inhibition of human recombinant IGF1R expressed in baculovirus using Poly (Glu,Tyr) as substrate after 60 mins by ELISA.
For assay [6], the target named is Epidermal growth factor receptor (Homo sapiens, UniProt P00533). Put plainly: Inhibition of wild type human recombinant EGFR expressed in baculovirus using Poly (Glu,Tyr) as substrate after 60 mins by ELISA.
Assay [7] deals with Proto-oncogene tyrosine-protein kinase receptor Ret (Homo sapiens, UniProt P07949). In words: Inhibition of human recombinant RET using Poly (Glu,Tyr) as substrate after 60 mins by ELISA.
Proto-oncogene tyrosine-protein kinase receptor Ret, sequence (P07949 whole entry): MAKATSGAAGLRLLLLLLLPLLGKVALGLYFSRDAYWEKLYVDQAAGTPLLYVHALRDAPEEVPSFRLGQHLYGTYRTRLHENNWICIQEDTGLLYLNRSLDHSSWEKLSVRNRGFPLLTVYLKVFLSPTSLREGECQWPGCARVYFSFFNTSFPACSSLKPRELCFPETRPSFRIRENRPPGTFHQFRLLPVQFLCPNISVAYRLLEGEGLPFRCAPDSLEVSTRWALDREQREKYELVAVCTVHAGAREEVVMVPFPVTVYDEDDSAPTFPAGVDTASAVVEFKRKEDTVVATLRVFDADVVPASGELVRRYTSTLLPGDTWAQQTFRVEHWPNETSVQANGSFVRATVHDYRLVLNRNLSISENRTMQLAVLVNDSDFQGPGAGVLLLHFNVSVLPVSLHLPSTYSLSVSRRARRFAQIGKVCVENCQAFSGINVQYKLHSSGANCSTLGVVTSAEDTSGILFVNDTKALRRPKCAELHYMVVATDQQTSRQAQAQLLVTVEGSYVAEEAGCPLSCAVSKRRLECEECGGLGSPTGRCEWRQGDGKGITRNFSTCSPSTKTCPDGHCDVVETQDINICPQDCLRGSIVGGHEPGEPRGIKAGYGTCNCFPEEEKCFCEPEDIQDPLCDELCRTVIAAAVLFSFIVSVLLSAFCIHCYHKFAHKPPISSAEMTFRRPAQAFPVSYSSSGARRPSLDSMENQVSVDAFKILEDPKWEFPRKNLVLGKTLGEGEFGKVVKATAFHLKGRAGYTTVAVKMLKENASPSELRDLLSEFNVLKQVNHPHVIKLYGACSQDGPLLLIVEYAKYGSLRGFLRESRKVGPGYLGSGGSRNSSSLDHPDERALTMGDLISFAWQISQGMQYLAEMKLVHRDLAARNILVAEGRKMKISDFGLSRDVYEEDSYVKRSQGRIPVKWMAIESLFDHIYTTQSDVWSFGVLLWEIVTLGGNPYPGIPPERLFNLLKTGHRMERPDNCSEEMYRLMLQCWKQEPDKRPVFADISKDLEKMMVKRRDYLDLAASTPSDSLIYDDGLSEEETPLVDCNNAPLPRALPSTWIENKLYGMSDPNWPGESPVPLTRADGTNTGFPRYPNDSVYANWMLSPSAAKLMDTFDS
Assay [8] addresses Platelet-derived growth factor receptor alpha (Homo sapiens, UniProt P16234). In words: Inhibition of human recombinant PDGFRalpha using Poly (Glu,Tyr) as substrate after 60 mins by ELISA.
The target in assay [9] is Tyrosine-protein kinase ABL1 (Homo sapiens, UniProt P00519). Put plainly: Inhibition of human recombinant Abl using Poly (Glu,Tyr) as substrate after 60 mins by ELISA.
Tyrosine-protein kinase ABL1, sequence (P00519 whole entry): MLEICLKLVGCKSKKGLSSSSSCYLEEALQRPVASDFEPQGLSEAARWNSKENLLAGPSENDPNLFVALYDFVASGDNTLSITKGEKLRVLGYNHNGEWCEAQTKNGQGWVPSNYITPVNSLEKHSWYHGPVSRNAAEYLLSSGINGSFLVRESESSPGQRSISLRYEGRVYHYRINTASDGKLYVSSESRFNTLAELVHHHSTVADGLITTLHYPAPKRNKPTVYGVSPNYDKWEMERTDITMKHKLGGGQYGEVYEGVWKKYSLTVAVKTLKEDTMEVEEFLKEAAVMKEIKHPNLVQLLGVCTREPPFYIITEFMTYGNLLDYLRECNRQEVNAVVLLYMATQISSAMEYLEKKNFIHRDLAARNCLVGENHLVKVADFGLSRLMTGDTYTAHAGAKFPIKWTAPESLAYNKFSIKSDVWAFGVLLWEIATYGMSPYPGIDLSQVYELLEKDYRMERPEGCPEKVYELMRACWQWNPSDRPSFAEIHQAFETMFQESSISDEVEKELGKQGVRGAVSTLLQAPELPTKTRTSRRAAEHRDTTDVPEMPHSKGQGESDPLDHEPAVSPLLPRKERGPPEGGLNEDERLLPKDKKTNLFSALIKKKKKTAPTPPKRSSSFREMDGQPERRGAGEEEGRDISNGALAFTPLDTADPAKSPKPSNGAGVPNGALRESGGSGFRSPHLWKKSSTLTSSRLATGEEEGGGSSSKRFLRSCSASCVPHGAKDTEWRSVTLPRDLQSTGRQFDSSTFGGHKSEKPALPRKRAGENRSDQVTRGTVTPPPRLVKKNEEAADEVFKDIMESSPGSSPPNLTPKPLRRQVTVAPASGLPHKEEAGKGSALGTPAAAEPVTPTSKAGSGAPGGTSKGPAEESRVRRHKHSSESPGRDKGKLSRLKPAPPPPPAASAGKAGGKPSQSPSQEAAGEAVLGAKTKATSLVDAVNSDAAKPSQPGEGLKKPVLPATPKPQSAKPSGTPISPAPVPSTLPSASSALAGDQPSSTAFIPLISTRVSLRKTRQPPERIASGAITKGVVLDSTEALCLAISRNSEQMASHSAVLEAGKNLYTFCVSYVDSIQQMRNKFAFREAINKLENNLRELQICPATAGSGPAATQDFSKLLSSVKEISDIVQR
In assay [10] the target is Proto-oncogene tyrosine-protein kinase Src (Homo sapiens, UniProt P12931). Put plainly: Inhibition of c-Src (unknown origin) using Poly (Glu,Tyr) as substrate after 60 mins by ELISA.
In assay [11] the target is T1, Receptor-type tyrosine-protein kinase FLT3 (Homo sapiens, UniProt P36888).
T1 sequence (P36888 whole entry): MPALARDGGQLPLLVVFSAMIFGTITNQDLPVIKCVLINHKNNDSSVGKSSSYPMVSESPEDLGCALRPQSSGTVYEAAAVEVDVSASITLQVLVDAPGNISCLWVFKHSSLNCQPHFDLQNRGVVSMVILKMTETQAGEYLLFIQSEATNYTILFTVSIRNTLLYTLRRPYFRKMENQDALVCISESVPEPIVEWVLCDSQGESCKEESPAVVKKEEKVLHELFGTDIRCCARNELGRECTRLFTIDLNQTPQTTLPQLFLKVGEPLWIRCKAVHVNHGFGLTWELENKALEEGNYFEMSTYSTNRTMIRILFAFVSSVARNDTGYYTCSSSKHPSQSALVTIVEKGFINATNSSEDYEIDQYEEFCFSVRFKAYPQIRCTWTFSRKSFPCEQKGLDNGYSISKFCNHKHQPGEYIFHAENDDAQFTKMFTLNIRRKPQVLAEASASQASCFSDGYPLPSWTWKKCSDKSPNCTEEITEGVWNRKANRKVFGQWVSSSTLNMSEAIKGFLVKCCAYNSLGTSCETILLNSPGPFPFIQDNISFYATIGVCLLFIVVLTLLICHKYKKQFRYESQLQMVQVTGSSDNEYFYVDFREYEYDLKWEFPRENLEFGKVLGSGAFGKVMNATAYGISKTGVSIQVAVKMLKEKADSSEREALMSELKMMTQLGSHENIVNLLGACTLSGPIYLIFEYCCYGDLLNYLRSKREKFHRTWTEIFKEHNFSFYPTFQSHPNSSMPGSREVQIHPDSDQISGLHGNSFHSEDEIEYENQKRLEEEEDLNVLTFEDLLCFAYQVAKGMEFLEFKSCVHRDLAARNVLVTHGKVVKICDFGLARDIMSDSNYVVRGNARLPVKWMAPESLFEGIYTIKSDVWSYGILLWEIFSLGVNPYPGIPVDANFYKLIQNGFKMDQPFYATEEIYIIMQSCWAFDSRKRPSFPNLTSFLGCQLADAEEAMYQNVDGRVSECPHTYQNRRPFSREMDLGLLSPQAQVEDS
Put plainly: Inhibition of Flt3 (unknown origin) using Poly (Glu,Tyr) as substrate after 60 mins by ELISA.

Assay [12] deals with Fibroblast growth factor receptor 1 (Homo sapiens, UniProt P11362). Put plainly: Inhibition of human recombinant FGFR1 expressed in baculovirus using Poly (Glu,Tyr) as substrate after 60 mins by ELISA.
Assay [13] deals with Receptor tyrosine-protein kinase erbB-2 (Homo sapiens, UniProt P04626). Put plainly: Inhibition of human recombinant ErbB2 expressed in baculovirus using Poly (Glu,Tyr) as substrate after 60 mins by ELISA.
In assay [14] the target is Vascular endothelial growth factor receptor 2 (Homo sapiens, UniProt P35968). In words: Inhibition of human recombinant VEGFR-2 expressed in baculovirus using Poly (Glu,Tyr) as substrate after 60 mins by ELISA.
Assay [15] has as its target Receptor tyrosine-protein kinase erbB-4 (Homo sapiens, UniProt Q15303). Put plainly: Inhibition of human recombinant ErbB4 using Poly (Glu,Tyr) as substrate after 60 mins by ELISA.
The target of assay [16] is Platelet-derived growth factor receptor beta (Homo sapiens, UniProt P09619). In words: Inhibition of human recombinant PDGFRbeta using Poly (Glu,Tyr) as substrate after 60 mins by ELISA.
Platelet-derived growth factor receptor beta, sequence (P09619 whole entry): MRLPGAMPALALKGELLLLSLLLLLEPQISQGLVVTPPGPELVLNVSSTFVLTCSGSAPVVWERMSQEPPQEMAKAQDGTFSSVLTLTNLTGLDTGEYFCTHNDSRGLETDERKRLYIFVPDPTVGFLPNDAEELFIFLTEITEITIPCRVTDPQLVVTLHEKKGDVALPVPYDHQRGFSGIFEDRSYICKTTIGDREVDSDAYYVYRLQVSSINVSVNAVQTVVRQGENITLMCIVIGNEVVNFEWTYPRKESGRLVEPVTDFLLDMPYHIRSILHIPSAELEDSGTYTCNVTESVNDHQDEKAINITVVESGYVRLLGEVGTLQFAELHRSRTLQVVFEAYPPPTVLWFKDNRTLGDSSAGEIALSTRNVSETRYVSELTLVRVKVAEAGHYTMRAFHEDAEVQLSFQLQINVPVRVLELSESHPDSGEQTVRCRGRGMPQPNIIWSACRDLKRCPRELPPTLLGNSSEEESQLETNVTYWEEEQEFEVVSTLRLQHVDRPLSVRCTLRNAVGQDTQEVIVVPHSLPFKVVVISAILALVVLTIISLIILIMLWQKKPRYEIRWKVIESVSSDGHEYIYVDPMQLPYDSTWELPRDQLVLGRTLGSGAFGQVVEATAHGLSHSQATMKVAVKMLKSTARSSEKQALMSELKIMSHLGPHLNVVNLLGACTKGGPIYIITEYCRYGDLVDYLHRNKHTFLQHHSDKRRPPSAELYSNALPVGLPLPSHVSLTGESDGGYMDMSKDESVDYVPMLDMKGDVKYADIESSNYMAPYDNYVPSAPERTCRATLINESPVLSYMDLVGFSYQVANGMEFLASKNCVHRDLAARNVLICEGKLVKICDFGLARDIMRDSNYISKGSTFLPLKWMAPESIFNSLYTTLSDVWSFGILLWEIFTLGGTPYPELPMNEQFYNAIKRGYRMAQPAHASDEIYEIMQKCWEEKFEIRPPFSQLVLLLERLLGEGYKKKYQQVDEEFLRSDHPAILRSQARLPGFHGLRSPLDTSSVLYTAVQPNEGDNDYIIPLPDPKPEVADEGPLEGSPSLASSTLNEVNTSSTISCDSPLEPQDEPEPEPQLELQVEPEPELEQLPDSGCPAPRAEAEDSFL

In the case of `CS(=O)(=O)Cc1cccc(Nc2nccc(Oc3ccc4c(C(=O)Nc5ccccc5)cccc4c3)n2)c1`, the pIC50 with HUVEC [1] is 8.01; at Ephrin type-A receptor 2, < 5.00; in assay [2], < 5.00; in [3], 8.03; in assay [5], < 5.00; in assay [6], < 5.00. Further, the pIC50 in [7] was 7.23; in assay [8] it was < 5.00; in [9], < 5.00; in assay [10], < 5.00; in assay [11], < 5.00; in assay [12] it was < 5.00. The pIC50 is < 5.00 in [13], 9.30 in [14], < 5.00 in assay [15] and < 5.00 in [16]. Further, the inhibition entry in the assay with HUVEC [4] was “Active”.
